Laboratory results: patent publication US10570179B2, “Substituted urea depsipeptide analogs as activators of the CLPP endopeptidase” (priority 2016, dated 2020)
Numbered stars: 1 amine (or outer) side, 2 acyl side, 3 side chain; on linkers, the order of the positions; unused ones are H or OH. Bridge positions count the residues as written; N and C are the ends. Square brackets hold non-standard residues; d marks the D form. Peptide text beside a SMILES is read from it. * marks the point of attachment. ξ: configuration not given here. Phe(3,5-Me2) = Cc1cc(C)cc(C[C@H](N)C(=O)O)c1; Phe(3-Me) = Cc1cccc(C[C@H](N)C(=O)O)c1; Pro(4S-Me) = C[C@@H]1CN[C@H](C(=O)O)C1; NH(4-Cl-2-F-phenyl) = Fc1cc(Cl)ccc1N*; Pro(4R-Me) = C[C@H]1CN[C@H](C(=O)O)C1; Propanoyl(3-NMe2) = CN(C)CCC(=O)*; Hyp = O=C(O)[C@@H]1C[C@@H](O)CN1; NH(4-Me-phenyl) = Cc1ccc(N*)cc1; ξNMeThr = CNC(C(=O)O)[C@@H](C)O; aThr = C[C@H](O)[C@H](N)C(=O)O; Pip = O=C(O)[C@@H]1CCCCN1; CO = O=C([*:1])[*:2]

Legend:
S. aureus ΔClpP = assay: Minimal inhibitory concentration, microbroth dilution; type: cell-based, Staphylococcus aureus; conditions: MIC; ClpP inactivated
Procedure, shortened: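 MICs were determined by CLSI broth microdilution, using two-fold compound dilutions from a final 200 μM and about 10^5 cfu/mL inoculum. Plates were incubated aerobically at 37 °C overnight. The MIC was read visually as the lowest concentration preventing growth.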

[1] = Plasma protein binding, rapid equilibrium dialysis; type: in vitro ADME, human; conditions: 10 μM
Description: This assay determines plasma protein binding of a drug/compound and free drug concentration in plasma using rapid equilibrium dialysis, which allow the aqueous component of plasma containing the free drug/compound through a dialysis membrane (MWCO˜8,000).
Solutions were prepared at 10 mM in DMSO. Dulbecco's phosphate buffered saline (DPBS; pH 7.4) was obtained from Invitrogen (Carlsbad, Calif.). Single-Use RED (rapid equilibrium dialysis) device was obtained from Thermo scientific (Rockford, Ill.). Human plasma was obtained from Innovative Research INC (Novi, Michigan, Ill).
Sample preparation for plasma protein binding was modified from Waters' method. (Waters et al. (2008) J. Pharm. Sci. 97(10): 4586-95). The Teflon base plate with the RED inserts (MWCO 8 K) were allowed to use without any pre-condition the membrane inserts. Human plasma was thawed and centrifuged at 1000 rpm for 2 min to remove any particulates. Each compound was prepared at 10 μM in human plasma. This was done by adding 1 μL, of drug solution (10 mM in DMSO) to 1000 μL, of human plasma (0.1% DMSO). Spiked plasma solutions (300 μL) were placed into the sample chamber (indicated by the red ring) and 500 μL, of DPBS into the adjacent chamber. The plate was sealed and incubated at 37° C. on an orbital shaker (100 rpm) for 4 hours. After incubation, the seal was removed from the RED plate and the volume of the insert confirmed—little to no volume change occurred. Aliquots (50 μL) were removed from each side of the insert and dispensed into a 96-well deep plate. An equal volume of blank plasma or DPBS was added to the required wells to create analytically identical sample matrices (matrix matching). To each sample 200 μL, of ACN containing 4 μg/mL warfarin IS was added. All of the plates were sealed and mixed well at 600 rpm for 10 min and were centrifuged at 4000 rpm for 20 min. The supernatants (120 μL) were transferred to analytical plates for analysis by LCMS. Conditions for Waters ACQUITY-UPLC-MS-UV system were described separately. The test compound concentrations were quantified in both buffer and plasma chambers via peak areas relative to the internal standard. The percentage of the test compound bound to plasma was calculated on following equations: % Free=(Concentration buffer chamber/concentration plasma chamber)×100% and % Bound=100%-% Free.

Sa-ClpP = biological target: T1, Sa-ClpP (Staphylococcus aureus, UniProt Q2G036); assay: ADEP displacement fluorescence polarization assay; type: binding, S. aureus; conditions: displacement of FP probe ADEP 2591 from Sa-ClpP
T1 construct: made in house; host or cells: E. coli BL21 (DE3)
T1 sequence (Q2G036 whole entry): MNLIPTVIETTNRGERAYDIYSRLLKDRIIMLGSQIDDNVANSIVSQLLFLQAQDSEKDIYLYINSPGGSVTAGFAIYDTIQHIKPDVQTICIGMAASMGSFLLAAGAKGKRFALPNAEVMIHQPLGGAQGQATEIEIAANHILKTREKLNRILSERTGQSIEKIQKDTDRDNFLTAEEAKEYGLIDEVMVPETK
Description: A fluorescence polarization (FP) assay was used to determine the activity of the disclosed compounds in displacing an ADEP analogue from ClpP. Briefly, the assay was performed in black 384 well, flat bottom, low volume plates (Greiner Bio-One, Monroe, N.C., catalog #784076). 20 μL of a pre-equilibrated (1 hr, room temperature) master mix (15 μM Sa-ClpP, 2% DMSO (v/v) and 50 nM FP probe in TrisHCl, pH 8.0)) was pipetted into each well using a Well-Mate (Thermo Scientific, Waltham, Mass.). Sa-ClpP was prepared as described above for the ClpP activation assay. The FP probe was ADEP 2591 (structure shown above). The ADEP 2591 comprises a TAMRA fluorophore linked to a core based on modified ADEP 2378 via a short alkyl linker. Using pin transfer, approximately 0.4 μL (2% v/v DMSO) of each compound or control was added per well. After addition of compounds and controls, plates were allowed to incubate for an additional 120 minutes at room temperature. All assays were performed in triplicate. Polarization was monitored using an EnVision Multilabel reader (Perkin-Elmer, Waltham, Mass.) by exciting the FP probe at 530±25 nm, and monitoring fluorescence intensity of both parallel and perpendicular polarized light at 579±25 nm. Readout was in millipolarization units (mP).
Signal gain and G factors were determined in wells containing 200 μM ADEP 2378, which had been previously verified (data not shown) as containing completely unbound ADEP 2591. Data collected was normalized to values obtained from positive (200 μM ADEP 2378) or negative (DMSO) controls. Curves were fit with non-linear regression using the equation “log [inhibitor] vs. Response-variable slope (four parameters)-symmetrical” in the program Prism 6 (GraphPad Software, La Jolla, Calif. USA, www.graphpad.com). The structures for ADEP 2378 and ADEP 2591 are shown above. ADEP 2378 is (E)-N—((S)-1-(((2R,6S,8aS,14aS,20S,23aS)-2,6-dimethyl-5,8,14,19,23-pentaoxooctadecahydro-1H,5H,14H,19H-pyrido[2,1-i]dipyrrolo[2,1-c:2′,1′-1][1]oxa[4,7,10,13]tetraazacyclohexadecin-20-yl)amino)-1-oxo-3-phenylpropan-2-yl)pent-2-enamide. ADEP 2591 is 5-(3-(3-((6S,9S,11aS,17S,20aS)-6,10-dimethyl-5,8,11,16,20-pentaoxo-17-((S)-2-((E)-pent-2-enamido)-3-phenylpropanamido)hexadecahydro-1H,5H,16H-dipyrrolo[2,1-c:2′,1′-1][1]oxa[4,7,10,13]tetraazacyclohexadecin-9-yl)propyl)thioureido)-2-(6-(dimethylamino)-3-(dimethyliminio)-3H-xanthen-9-yl)benzoate.

[2] = plasma binding, % Bound, human plasma

Compound | Minimal Inhibitory Concentrations (μM) S. aureus ΔClpP (S. aureus ΔClpP) | Human [1, 2] | IC50 (Sa-ClpP) | Human ([1]; human, 4 h, pH 7.4)
Cc1ccc(NC(=O)N[C@@H](Cc2cccc(C)c2)C(=O)N[C@@H]2C(=O)N3CCC[C@H]3C(=O)N3CCCC[C@H]3C(=O)N[C@@H](C)C(=O)N3C[C@H](C)C[C@H]3C(=O)O[C@H]2C)cc1 [Compound 1, (S)-3-(M-TOLYL)-2-(3-(P-TOLYL)UREIDO)-N-((2R,6S,8AS,14AS,20S,21S,23AS)-2,6,21-TRIMETHYL-5,8,14,19,23-PENTAOXOOCTADECAHYDRO-1H,5H,14H,19H-PYRIDO[2,1-I]DIPYRROLO[2,1-C:2′,1′-L][1]OXA[4,7,10,13]TETRAAZACYCLOHEXADECIN-20-YL)PROPANAMIDE] ({NH(4-Me-phenyl)-CO}-[Phe(3-Me)][aThr]P[Pip]A[Pro(4R-Me)]; ester 2-C) | 200 µM | 98.5% | 7.48 ± 0.5 µM | 
Cc1ccc(NC(=O)N[C@@H](Cc2cc(C)cc(C)c2)C(=O)N[C@@H]2C(=O)N3CCC[C@H]3C(=O)N3CCCC[C@H]3C(=O)N[C@@H](C)C(=O)N3C[C@H](C)C[C@H]3C(=O)O[C@H]2C)cc1 [Compound 2, (S)-3-(3,5-DIMETHYLPHENYL)-2-(3-(P-TOLYL)UREIDO)-N-((2R,6S,8AS,14AS,20S,21S,23AS)-2,6,21-TRIMETHYL-5,8,14,19,23-PENTAOXOOCTADECAHYDRO-1H,5H,14H,19H-PYRIDO[2,1-I]DIPYRROLO[2,1-C:2′,1′-L][1]OXA[4,7,10,13]TETRAAZACYCLOHEXADECIN-20-YL)PROPANAMIDE] ({NH(4-Me-phenyl)-CO}-[Phe(3,5-Me2)][aThr]P[Pip]A[Pro(4R-Me)]; ester 2-C) | 200 µM | 99.3% | 8.82 ± 0.4 µM | 
Cc1cccc(C[C@H](NC(=O)Nc2ccc(Cl)cc2F)C(=O)N[C@@H]2C(=O)N3CCC[C@H]3C(=O)N3CCCC[C@H]3C(=O)N[C@@H](C)C(=O)N3C[C@H](C)C[C@H]3C(=O)O[C@H]2C)c1 [Compound 3, (S)-2-(3-(4-CHLORO-2-FLUOROPHENYL)UREIDO)-3-(M-TOLYL)-N-((2R,6S,8AS,14AS,20S,21S,23AS)-2,6,21-TRIMETHYL-5,8,14,19,23-PENTAOXOOCTADECAHYDRO-1H,5H,14H,19H-PYRIDO[2,1-I]DIPYRROLO[2,1-C:2′,1′-L][1]OXA[4,7,10,13]TETRAAZACYCLOHEXADECIN-20-YL)PROPANAMIDE] ({NH(4-Cl-2-F-phenyl)-CO}-[Phe(3-Me)][aThr]P[Pip]A[Pro(4R-Me)]; ester 2-C) | 50 µM |  | 6.61 ± 0.28 µM | 99.0 ± 0.1%
Cc1cc(C)cc(C[C@H](NC(=O)Nc2ccc(Cl)cc2F)C(=O)N[C@@H]2C(=O)N3CCC[C@H]3C(=O)N3CCCC[C@H]3C(=O)N[C@@H](C)C(=O)N3C[C@H](C)C[C@H]3C(=O)O[C@H]2C)c1 [Compound 4, (S)-2-(3-(4-CHLORO-2-FLUOROPHENYL)UREIDO)-3-(3,5-DIMETHYLPHENYL)-N-((2R,6S,8AS,14AS,20S,21S,23AS)-2,6,21-TRIMETHYL-5,8,14,19,23-PENTAOXOOCTADECAHYDRO-1H,5H,14H,19H-PYRIDO[2,1-I]DIPYRROLO[2,1-C:2′,1′-L][1]OXA[4,7,10,13]TETRAAZACYCLOHEXADECIN-20-YL)PROPANAMIDE] ({NH(4-Cl-2-F-phenyl)-CO}-[Phe(3,5-Me2)][aThr]P[Pip]A[Pro(4R-Me)]; ester 2-C) | 25 µM |  | 6.45 ± 0.4 µM | 99.8 ± 0.2%
Cc1cccc(C[C@H](NC(=O)Nc2ccc(Cl)cc2F)C(=O)N[C@@H]2C(=O)N3CCC[C@H]3C(=O)N(C)C([C@@H](C)O)C(=O)N[C@@H](C)C(=O)N3C[C@H](C)C[C@H]3C(=O)O[C@H]2C)c1 (stereo partly drawn) [Compound 5] ({NH(4-Cl-2-F-phenyl)-CO}-[Phe(3-Me)][aThr]P[ξNMeThr]A[Pro(4R-Me)]; ester 2-C) | >20 µM |  | 4.4 ± 0.4 µM | 98.0 ± 1.0%
Cc1ccc(NC(=O)N[C@@H](Cc2cccc(C)c2)C(=O)N[C@@H]2C(=O)N3CCC[C@H]3C(=O)N3CCCC[C@H]3C(=O)N[C@@H](C)C(=O)N3C[C@@H](C)C[C@H]3C(=O)O[C@H]2C)cc1 [Compound 45, (S)-3-(M-TOLYL)-2-(3-(P-TOLYL)UREIDO)-N-((2S,6S,8AS,14AS,20S,21S,23AS)-2,6,21-TRIMETHYL-5,8,14,19,23-PENTAOXOOCTADECAHYDRO-1H,5H,14H,19H-PYRIDO[2,1-I]DIPYRROLO[2,1-C:2′,1′-L][1]OXA[4,7,10,13]TETRAAZACYCLOHEXADECIN-20-YL)PROPANAMIDE] ({NH(4-Me-phenyl)-CO}-[Phe(3-Me)][aThr]P[Pip]A[Pro(4S-Me)]; ester 2-C) | >20 µM | 97.3 ± 0.3% |  | 
Cc1cccc(C[C@H](NC(=O)Nc2ccc(Cl)cc2F)C(=O)N[C@@H]2C(=O)N3C[C@H](OC(=O)CCN(C)C)C[C@H]3C(=O)N3CCCC[C@H]3C(=O)N[C@@H](C)C(=O)N3C[C@H](C)C[C@H]3C(=O)O[C@H]2C)c1 [Compound 46, (2R,6S,8AS,14AS,16R,20S,21S,23AS)-20-((S)-2-(3-(4-CHLORO-2-FLUOROPHENYL)UREIDO)-3-(M-TOLYL)PROPANAMIDO)-2,6,21-TRIMETHYL-5,8,14,19,23-PENTAOXOOCTADECAHYDRO-1H,5H,14H,19H-PYRIDO[2,1-I]DIPYRROLO[2,1-C:2′,1′-L][1]OXA[4,7,10,13]TETRAAZACYCLOHEXADECIN-16-YL 3-(DIMETHYLAMINO)PROPANOATE] ({NH(4-Cl-2-F-phenyl)-CO}-[Phe(3-Me)][aThr][Hyp](Propanoyl(3-NMe2))[Pip]A[Pro(4R-Me)]; ester 2-C) | >20 µM |  |  | 99.5 ± 0.3%
Cc1ccc(NC(=O)N[C@@H](Cc2cccc(C)c2)C(=O)N[C@H]2COC(=O)[C@@H]3CCCN3C(=O)[C@H](C)NC(=O)[C@@H]3CCCCN3C(=O)[C@@H]3C[C@@H](O)CN3C2=O)cc1 [Compound 49, (S)—N-((6S,8AS,14AS,16R,20S,23AS)-16-HYDROXY-6-METHYL-5,8,14,19,23-PENTAOXOOCTADECAHYDRO-1H,5H,14H,19H-PYRIDO[2,1-I]DIPYRROLO[2,1-C:2′,1′-L][1]OXA[4,7,10,13]TETRAAZACYCLOHEXADECIN-20-YL)-3-(M-TOLYL)-2-(3-(P-TOLYL)UREIDO)PROPANAMIDE] | >20 µM | 98.7 ± 8.7% |  | 
